Data on 35 compounds can be found in US4835153A, “Malonic acid derivatives” (Nihon Nohyaku Co., Ltd., priority 1986, dated 1989).

Series [1] relates to hepatic disorder caused by carbon tetrachloride (liver injury, plasma glutamic pyruvic transaminase). Put plainly: Effect of suppressing hepatic disorder caused by carbon tetrachloride. The series is classed as in vivo, mice (dd-strain, male). Also on record: key to Liver injury index: liver injury index 0 = healthy, 2 slight, 4 evident, 6 serious injury. As to conditions: 30 mg/kg oral, 6 h before CCl4 0.05 ml/kg oral, 24 h after CCl4, mean of five mice; for Liver injury index: 0 healthy, 2 slightly affected, 4 evident injury, 6 serious injury; for p-GPT (plasma glutamic pyruvic transaminase activity): Reitman-Frankel, Karmen Units, >=2,100 calculated as 2,100. The method, then: Test Example 1 Effect of suppressing hepatic disorder caused by carbon tetrachloride. Test Method […] Six hours thereafter, carbon tetrachloride was orally administered in a proportion of 0.05 ml/kg. The animals were sacrificed 24 hours after the administration of carbon tetrachloride, and the extent of liver injury was grossly examined. On the other hand, blood was collected from the animal at the time of the sacrifice, and centrifuged to obtain plasma. The plasma glutamic pyruvic transminase (GPT) activity was determined according to the method of Reitman-Frankel. The activity was expressed in terms of Karmen Units (K.U.). The conditions of the liver were expressed in terms of liver injury index as follows. […] When the GPT activity was 2,100 units or higher, […], and the activity was calculated as 2,100 units for reasons of convenience.

A short description of series [2]: acute oral toxicity to male rat (LD50). The settings on record: in vivo. The protocol:
For example, LD50 value (acute oral toxicity to male rat) of the compound No. 20 is more than 1,000 mg/kg.

With `CCOC(=O)C(C(=O)OCC)=C1SC2NCCNC2S1` (stereo not drawn) [Compound 1], in series [1], the Liver injury index is 2.0 and the “p-GPT (plasma glutamic pyruvic transaminase activity)” value (“p-GPT” for short) was 225 K.U.
For `CC(C)OC(=O)C(C(=O)OC(C)C)=C1SC2NCCNC2S1` (stereo not drawn) [Compound 2, Diisopropyl(2,5-diaza-7,9-dithiabicyclo-[4,3,0]-nonane-8-ylidene)malonate], in series [1], the Liver injury index is 0.3 and the “p-GPT” value is recorded as 24.4 K.U.
`CCCOC(=O)C(C(=O)OCCC)=C1SC2NCCNC2S1` (stereo not drawn) [Compound 3]: in series [1], the Liver injury index came to 0.1 and the “p-GPT” value is 53.0 K.U.
For `CCCOC(=O)C(C(=O)OCCC)=C1SC2C(S1)N(C(C)=O)CCN2CC` (stereo not drawn) [Compound 10], in series [1], the Liver injury index stood at 4.5 and the “p-GPT” value is given as 2,000 K.U.
Turning to `CC(C)OC(=O)C(C(=O)OC(C)C)=C1SC2C(S1)N(C)CCN2C` (stereo not drawn) [Compound 16, Diisopropyl(2,5-dimethyl-2,5-diaza-7,9-dithiabicyclo-[4,3,0]-nonane-8-ylidene)malonate], in series [1], the Liver injury index was 0.6 and the “p-GPT” value was 32 K.U.
With `COC(=O)C(C(=O)OC)=C1SC2C(S1)N(C)CCN2C` (stereo not drawn) [Compound 18], in series [1], the Liver injury index turned out to be 1.8 and the “p-GPT” value was 166 K.U.
For `CCOC(=O)C(C(=O)OCC)=C1SC2C(S1)N(C)CCN2C` (stereo not drawn) [Compound 19], in that order: 1.6 and 99 K.U.
`CCCOC(=O)C(C(=O)OCCC)=C1SC2C(S1)N(C)CCN2C` (stereo not drawn) [Compound 20] registered an LD50 in series [2] of over 1000 mg/kg.
In the case of `CCCCOC(=O)C(C(=O)OCCCC)=C1SC2C(S1)N(C)CCN2C` (stereo not drawn) [Compound 23], in series [1], the Liver injury index is 1.2 and the “p-GPT” value is 10.2 K.U.
For the compound `CCN1CCN(CC)C2SC(=C(C(=O)OC)C(=O)OC)SC21` (stereo not drawn) [Compound 25], in series [1], the Liver injury index is reported as 0.4 and the “p-GPT” value is on record as 13.2 K.U.
For `CC(C)OC(=O)C(C(=O)OC(C)C)=C1SC2N(C)CCN(C)C2(C)S1` (stereo not drawn) [Compound 28] the same measures were 1.5 and 547 K.U.
For `CCCCOC(=O)C(C(=O)OCCCC)=C1SC2C(S1)N(CC)CCN2CC` (stereo not drawn) [Compound 30], in that order: 0.8 and 22.8 K.U.
For `CCN1CCN(CC)C2(C)SC(=C(C(=O)OC(C)C)C(=O)OC(C)C)SC12` (stereo not drawn) [Compound 33], in series [1], the Liver injury index is given as 1.2 and the “p-GPT” value is given as 925 K.U.
For `CCCOC(=O)C(C(=O)OCCC)=C1SC2C(S1)N(CC)CCN2CC` (stereo not drawn) [Compound 37], in series [1], the Liver injury index was determined as 1.4 and the “p-GPT” value is reported as 143 K.U.
Regarding `CCN1CCN(CC)C2SC(=C(C(=O)OC(C)(C)C)C(=O)OC(C)(C)C)SC21` (stereo not drawn) [Compound 40], in series [1], the Liver injury index is reported as 1.8 and the “p-GPT” value was 164 K.U.
As for `C=CCN1CCN(CC=C)C2SC(=C(C(=O)OCCC)C(=O)OCCC)SC21` (stereo not drawn) [Compound 43], in series [1], the Liver injury index was determined as 0.2 and the “p-GPT” value is 51 K.U.
For `C=CCOC(=O)C(C(=O)OCC=C)=C1SC2C(S1)N(CC=C)CCN2CC=C` (stereo not drawn) [Compound 49], in that order: 1.2 and 23.8 K.U.
For the compound `COCC(C)OC(=O)C(C(=O)OC(C)COC)=C1SC2C(S1)N(C)CCN2C` (stereo not drawn) [Compound 51], in series [1], the Liver injury index is 0.4 and the “p-GPT” value is 18.2 K.U.
Regarding `CCOC(=O)C(C(=O)OC)=C1SC2C(S1)N(C)CCN2C` (stereo not drawn) [Compound 54], in series [1], the Liver injury index is 0 and the “p-GPT” value was 13.4 K.U.
In the case of `CCOC(=O)C(C(=O)OC(C)C)=C1SC2C(S1)N(C)CCN2C` (stereo not drawn) [Compound 56], in series [1], the Liver injury index turned out to be 0 and the “p-GPT” value is 16.8 K.U.
`CCCCOC(=O)C(C(=O)OCC)=C1SC2C(S1)N(C)CCN2C` (stereo not drawn) [Compound 59]: in series [1], the Liver injury index is on record as 0.5 and the “p-GPT” value is listed as 109.2 K.U.
Turning to `CCC(COC)OC(=O)C(C(=O)OC(CC)COC)=C1SC2C(S1)N(C)CCN2C` (stereo not drawn) [Compound 63], in series [1], the Liver injury index came out at 0.5 and the “p-GPT” value is on record as 32.8 K.U.
For `CCOC(=O)C(C(=O)OCC(C)C)=C1SC2C(S1)N(CC)CCN2CC` (stereo not drawn) [Compound 67], in that order: 2.5 and 1,620 K.U.
Regarding `CCCCOC(=O)C(C(=O)OC(C)C)=C1SC2C(S1)N(CC)CCN2CC` (stereo not drawn) [Compound 68], in series [1], the Liver injury index was 1.5 and the “p-GPT” value was 914.6 K.U.
As for `CCOC(=O)C(C(=O)OC(C)(C)C)=C1SC2C(S1)N(CC)CCN2CC` (stereo not drawn) [Compound 72], in series [1], the Liver injury index is recorded as 0.4 and the “p-GPT” value is given as 428.6 K.U.
For `Cc1ccc(COC(=O)C(C(=O)OC(C)C)=C2SC3C(S2)N(C)CCN3C)cc1` (stereo not drawn) [Compound 74], in series [1], the Liver injury index is reported as 0.6 and the “p-GPT” value is 25 K.U.
Regarding `COc1ccc(COC(=O)C(C(=O)OC(C)C)=C2SC3C(S2)N(C)CCN3C)cc1` (stereo not drawn) [Compound 75, Isopropyl 4-methoxybenzyl(2,5-dimethyl-2,5-diaza-7,9-dithiabicycl-[4,3,0]-nonane-8-ylidene)malonate], in series [1], the Liver injury index is listed as 0 and the “p-GPT” value is reported as 20 K.U.
As for `CC(C)OC(=O)C(C(=O)OC(C)c1ccc(Cl)cc1Cl)=C1SC2C(S1)N(C)CCN2C` (stereo not drawn) [Compound 79], in series [1], the Liver injury index stood at 1.4 and the “p-GPT” value was 1,060 K.U.
Regarding `Cc1ccc(C(C)OC(=O)C(C(=O)OC(C)C)=C2SC3C(S2)N(C)CCN3C)cc1` (stereo not drawn) [Compound 81], in series [1], the Liver injury index is recorded as 1.2 and the “p-GPT” value was 120 K.U.
On to `CCOC(=O)C(C(=O)OC(C)c1ccc(Cl)cc1)=C1SC2C(S1)N(C)CCN2C` (stereo not drawn) [Compound 83], for which, in series [1], the Liver injury index is given as 0.8 and the “p-GPT” value is given as 38.6 K.U.
Consider `CCOC(=O)C(C(=O)OC(C)c1ccccc1)=C1SC2C(S1)N(C)CCN2C` (stereo not drawn) [Compound 84], for which, in series [1], the Liver injury index turned out to be 0.8 and the “p-GPT” value is on record as 37 K.U.
Turning to `CCC(C)OC(=O)C(C(=O)OC(C)CC)=C1SC2NCCNC2S1` (stereo not drawn) [Compound 87], in series [1], the Liver injury index is listed as 0.2 and the “p-GPT” value was 21 K.U.
Turning to `CC(C)OC(=O)C(C(=O)OC(C)C)=C1SC2C(S1)N(C)CCN2C` (stereo not drawn) [Compound 94], in series [1], the Liver injury index is 2.0 and the “p-GPT” value was 1,534 K.U.
On to `CCCOC(=O)C(C(=O)OCCC)=C1SC2NCCNC2(C)S1.Cl` (stereo not drawn) [Compound 96, Di-n-propyl(6-methyl-2,5-diaza-7,9-dithiabicyclo-[4,3,0]-nonane-8-ylidene)malonate hydrochloride salt], for which, in series [1], the Liver injury index amounted to 0.1 and the “p-GPT” value is reported as 28.0 K.U.
As to `CC(C)OC(=O)C(C(=O)OC(C)C)=C1SC2NCCNC2(C)S1` (stereo not drawn) [Compound 97], in series [1], the Liver injury index was 0.2 and the “p-GPT” value is 45.0 K.U.
